Like-named read-outs stand apart in the source and are kept apart here. No end group written: not given here.
Tests used:
[1] = single substitution of Ile for Glu at position 4, versus unmodified subtilin; cited from earlier work
[2] = test system: Streptococcus mutans GS-5; assay: Deferred antagonism assay on trypticase soy-yeast agar plates; type: cell-based; conditions: zone of inhibition
[3] = test system: Staphylococcus aureus; assay: as above; type: cell-based; design: key: S, sensitive (zone radius >2 mm); SS, zone radius >S; conditions: zone of inhibition
[4] = test system: Streptococcus pneumoniae; assay: as above; type: cell-based; design: key: S, sensitive (zone radius >2 mm); SS, zone radius >S; conditions: zone of inhibition
[5] = test system: Streptococcus pyogenes; assay: as above; type: cell-based; design: key: S, sensitive (zone radius >2 mm); SS, zone radius >S; conditions: zone of inhibition
[6] = type: physicochemical
Description: (§1) The mutacins of the present invention have an apparent Mr of about 2,500 Da as determined by high performance liquid chromatography using a size-exclusion column. This is a useful defining parameter which may be determined using the routinely employed technique of column chromatography. However, the highly purified mutacins may be found to have a slightly different exact molecular weights, depending on the technique used, such as the molecular weight of 3,244.64±1.15 Da determined by ion spray mass spectroscopy for the T8-derived mutacin as determined from the m/z values, wherein z is equal to 2, 3, or 4 for m / z values 1623, 1083 and 812, respectively (see FIG. 4). Furthermore, the mutacin is thermostable, as measured by, e.g., incubating an agar plug at 100° C. for 30 minutes and quantitating bacteriocidal activity. The mutacin is stable over a pH range of 4-10, as measured by incubating the purified mutacin for 24 hours in appropriate 0.1 M buffers, e.g., such as acetate, phosphate or glycine buffers, at room temperature, and tested for bacteriocidal activity.
Purified mutacin was mixed with different 0.1 M buffers in range pH 4-11 (sodium acetate pH 4-6; sodium phosphate pH 7-8; glycine-NaOH pH 8-11). After one or 24 h incubation at room temperature, residual mutacin activity was assayed using the spot test described above. […]

[7] = test system: Streptococcus salivarius; assay: Deferred antagonism assay on trypticase soy-yeast agar plates; type: cell-based; conditions: zone of inhibition
[8] = test system: Mycobacterium phlei; assay: as above; type: cell-based; conditions: zone of inhibition
[9] = test system: Streptococcus faecium; assay: as above; type: cell-based; conditions: zone of inhibition
[10] = test system: Streptococcus rattus; assay: as above; type: cell-based; conditions: zone of inhibition
[11] = test system: Streptococcus lactis; assay: as above; type: cell-based; conditions: zone of inhibition
[12] = test system: Streptococcus mitis; assay: as above; type: cell-based; conditions: zone of inhibition
[13] = type: physicochemical; remark: listed apart in the source
Description: as §1
(§2) Mutacin was sensitive to trypsin. After 10 min incubation with the protease, no activity in sample was detected. Control samples without trypsin retained their full activity under identical conditions. Mutacin was thermostable as analyzed by residual activity after incubation at 80° C. for 30 min, and by incubating at 100° C. in loading buffer.

[14] = test system: Streptococcus mutans 159; assay: Deferred antagonism assay on trypticase soy-yeast agar plates; type: cell-based; conditions: zone of inhibition
[15] = test system: Bacillus subtilis 1687; assay: as above; type: cell-based; conditions: zone of inhibition
[16] = Isoelectric point (electrophoretic mobility / isoelectric focusing); type: physicochemical; conditions: based on electrophoretic mobility
[17] = test system: Streptococcus mutans 130; assay: Deferred antagonism assay on trypticase soy-yeast agar plates; type: cell-based; conditions: zone of inhibition
[18] = test system: trypsin; assay: Sensitivity to trypsin (residual mutacin activity); type: physicochemical
Procedure: Sensitivity to trypsin (Sigma Chemical Co., St. Louis, Mo.) was determined according to the manufacturer's recommendation by incubating purified mutacin (4096 BU) in 50 ml of 50 mM sodium phosphate buffer pH 7.5 with trypsin (2 mg) at room temperature. Samples were analyzed for residual mutacin activity at various time intervals.
as §2

[19] = test system: Streptococcus faecalis 78.4; assay: Deferred antagonism assay on trypticase soy-yeast agar plates; type: cell-based; conditions: zone of inhibition
[20] = test system: Clostridium sporogenes; assay: as above; type: cell-based; conditions: Clostridium sporogenes (ATCC 19606); zone of inhibition
[21] = test system: Streptococcus sanguis; assay: as above; type: cell-based; conditions: zone of inhibition
Procedure: (§3) Mutacin production was detected by deferred antagonism technique on trypticase soy-yeast agar (TSAY) using S. sobrinus OMZ176, S. mutans 10449, or S. sanguis Ny101 as sensitive indicators (Parrot, et al., 1990). Mutacin present in liquid culture was quantified by spotting […] of 2-fold dilutions of mutacin in phosphate buffered saline (PBS) onto the surface of TSAY overlaid with indicator strain as described. Spots were allowed to dry for 1 h, then the plates were incubated anaerobically for 24 h. The lowest titer yielding a zone of inhibition having clear edges was defined as one bacteriocin unit (BU).
(§4) Biological activity may also be measured by overlaying thin layer chromatography or SDS-PAGE gels with an indicator strain.

[22] = test system: Streptococcus mutans WT; assay: as above; type: cell-based; conditions: zone of inhibition
Procedure: as §3, §4

[23] = test system: Actinomyces viscosus; assay: as above; type: cell-based; conditions: zone of inhibition
[24] = test system: S. sobrinus OMZ176, S. mutans 10449, or S. sanguis Ny101 as sensitive indicators; assay: Mutacin assay: spot test of 2-fold dilutions, bacteriocin units (BU); type: cell-based; conditions: bacteriocin units per mg total protein, at stages of purification
Description: The isolated antimicrobial mutacin polypeptides of the invention are generally characterized as having substantial bacteriocidal activity. As used herein the term “substantial bacteriocidal activity” describes significant mutacin-directed bacterial killing, as measured by any one of a variety of assays. Bacteriocidal activity may be advantageously examined and quantified by the deferred antagonism technique on trypticase soy-yeast agar (TSAY) using S. sobrinus OMZ176 or S. sanguis Ny101 as sensitive indicators (Parrot, et al., 1990). A unit of bacteriocidal activity (BU), present in liquid culture, is described as the lowest titer yielding a clear lytic-like zone of inhibition having clear edges and greater than 10 mm in diameter. Chikindas et al. describes arbitrary units (AU) of activity, which are essentially identical to bacteriocidal activity units. […]
as §3, with “Spots were allowed to dry for 1 h, then the plates were incubated anaerobically for 24 h. The lowest titer yielding a zone of inhibition having clear edges was defined as one bacteriocin unit (BU).” left out

For `C=C1NC(=O)CC[C@@H](C(=O)O)NC(=O)[C@H](NC(=O)[C@H](CCCCN)NC(=O)[C@@H](N)Cc2c[nH]c3ccccc23)CSC[C@@H](C(=O)N[C@@H]2C(=O)N3CCC[C@H]3C(=O)NCC(=O)N[C@H](C(=O)N[C@H](C(=O)N[C@@H]3C(=O)NCC(=O)N[C@@H](C)C(=O)N[C@@H](CC(C)C)C(=O)N[C@@H](CCC(N)=O)C(=O)N/C(=C/C)C(=O)N[C@H](C(=O)N[C@@H](Cc4ccccc4)C(=O)N[C@@H](CC(C)C)C(=O)N[C@@H](CCC(N)=O)C(=O)N[C@@H]4C(=O)N[C@@H](CC(C)C)C(=O)N[C@H]5C(=O)N[C@@H](CSC4C)C(=O)NC(=O)[C@H](CC(N)=O)N[C@H](C(=O)N[C@@H](CCCCN)C(=O)N[C@H](C(=O)NC(=C)C(=O)N[C@@H](CCCCN)C(=O)O)[C@@H](C)CC)CSC5C)CSC3C)C(C)C)CSC2C)N[C@@H](CC(C)C)C(=O)NC1=O` (stereo partly shown) [subtilin], the “increase of the biological half-life” value [1] is listed as 57 fold.

For “Mutacin: lanthionine-containing polypeptide antibiotic (lantibiotic) purified from Streptococcus mutans T8 or UA96; N-terminus Asn Arg Trp Trp Gln Gly Val Val (NRWWQGVVPTVSYECRMNSWQHVFTCC; cysteine pairing not given here; also: lanthionine-containing lantibiotic, lanthionines not placed; UniProt O54329 27-53, looked up)”, the Sensitivity [2] was “S (S, sensitive (zone radius >2 mm))”, the Sensitivity [3] was “SS” and the Sensitivity [4] was “SS”. For the same compound, the Sensitivity [5] was “SS”, the “pH (stable range)” value ([6]; listed as mutacin) was 4-10 and the “residual activity after incubation at pH 11” value ([6]; pH 11, 0.1 M glycine-NaOH, one or 24 h at room temperature, spot test) was “about 50%”. For the same compound, the Sensitivity [7] was “S (S, sensitive (zone radius >2 mm))”, the Sensitivity [8] was “S (S, sensitive (zone radius >2 mm))” and the Sensitivity [9] was “S (S, sensitive (zone radius >2 mm))”. The Sensitivity [10] was “S (S, sensitive (zone radius >2 mm))”, the Sensitivity [11] was “S (S, sensitive (zone radius >2 mm))” and the Sensitivity [12] was “S (S, sensitive (zone radius >2 mm))”. For the same compound, the “Temperature (thermostable)” value [13] was “thermostable > 100 °C”, the “thermostability, residual activity after incubation” value [13] was “thermostable” and the “Temperature (thermostable)” value ([13]; listed as mutacin) was “up to 100 °C”. For the same compound, the Sensitivity [14] was “S (S, sensitive (zone radius >2 mm))”, the Sensitivity [15] was “S (S, sensitive (zone radius >2 mm))” and the “pI (isoelectric point)” value [16] was “≧8.4 (based on electrophoretic”. The Sensitivity [17] was “S (S, sensitive (zone radius >2 mm))”, the “Trypsin (sensitivity)” value [18] was “sensitive” and the “residual mutacin activity after incubation with trypsin” value ([18]; 10 min, 4096 BU mutacin, trypsin 2 mg, 50 mM sodium phosphate pH 7.5, room temperature) was “no activity”. For the same compound, the Sensitivity [19] was “S (S, sensitive (zone radius >2 mm))”, the Sensitivity [20] was “S (S, sensitive (zone radius >2 mm))” and the Sensitivity [21] was “S (S, sensitive (zone radius >2 mm))”. The Sensitivity [22] was “S (S, sensitive (zone radius >2 mm))” and the Sensitivity [23] was “S (S, sensitive (zone radius >2 mm))”.

In the case of “Water precipitate from 8M urea: final preparation of mutacin, solubilized in 8 M urea and precipitated with water; over 90% pure (NRWWQGVVPTVSYECRMNSWQHVFTCC; cysteine pairing not given here; also: lanthionine-containing lantibiotic, lanthionines not placed; UniProt O54329 27-53, looked up)”, the Spec. activity [24] is reported as 150,187 BU/mg.
